For one compound, Kd results are on record in paper PMC10804683, “Identification of the pyridoxal 5′‐phosphate allosteric site in human pyridox(am)ine 5′‐phosphate oxidase” (Protein Science : A Publication of the Protein Society, 2024).

SMILES strings stand for the structures.

For the test, the target named is T1, human PNPO F48A variant (holo-enzyme) (Homo sapiens, UniProt Q9NVS9, F48A).
T1 construct: a main form corresponding to the entire protein; made in house; host or cells: E. coli BL21(DE3)
T1 sequence (Q9NVS9 1-261 F48A): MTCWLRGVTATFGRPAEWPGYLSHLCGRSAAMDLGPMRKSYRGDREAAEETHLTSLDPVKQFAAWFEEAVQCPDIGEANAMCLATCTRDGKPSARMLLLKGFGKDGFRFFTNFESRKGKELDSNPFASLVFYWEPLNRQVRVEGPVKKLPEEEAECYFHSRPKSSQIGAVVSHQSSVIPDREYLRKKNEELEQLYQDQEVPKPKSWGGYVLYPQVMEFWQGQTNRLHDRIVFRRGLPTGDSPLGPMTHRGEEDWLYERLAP
As to the kind of experiment: PLP binding by FMN fluorescence changes, holo F48A. The following applies: 100 nM enzyme, read-out: PLP binding KD^FLUO. The source says:
PLP binding to PNPO can be detected and quantitatively measured using differential scanning fluorimetry (DSF) and also by measuring FMN fluorescence changes. We had previously attributed DSF changes to PLP binding at the active site, while FMN fluorescence changes were attributed to PLP binding at the allosteric site (Barile et al., [2019], [2020]). Previous experiments carried out with the PNPO R161C variant, affecting a residue that is essential for substrate binding and catalysis (and therefore also for PLP binding at the active site), confirms that DSF measurements only report PLP binding at the active site (Barile et al., [2021]; Table 1). […] We expected to observe no FMN fluorescence changes upon titration of the variants with PLP. However, this was not the case, and the dissociation constant values obtained by observing the FMN fluorescence emission were only up to threefold larger in the variants with respect to wild type PNPO (Figure 3). […] To check the second possibility, we measured intrinsic fluorescence changes of wild type and variant apo‐forms (i.e., without FMN) upon PLP titration. […]
Analyses of PLP binding, based on FMN fluorescence increase observed upon binding of PLP to PNPO, were performed as described in Barile et al. ([2020]). […] Emission spectra were recorded from […], with excitation and emission slits set at 3 and 5 nm, respectively. […]

With `Cc1ncc(COP(=O)(O)O)c(C=O)c1O` [PLP, pyridoxal 5′‐phosphate], the Kd is 1.46 ± 0.09 µM.
